Data set [1] has as its system Respiratory syncytial virus recombinant with luciferase (RSV-Luc5) in NHBE cells. Description: NHBE RSV-Luc5 384-well Assay (RSV FLUC NHBE 384 V2, Ex. W). It is filed as cell-based. To be noted: human respiratory syncytial virus, 72 h, read-out: EC50 RSV FLUC NHBE 384 V2 (per Ex. W). Put shortly:
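NHBE cells (passage 2) seeded at 5,000 cells/well onto pre-spotted compounds, 10-point 1:3 dilutions, then infected with RSV-Luc5 at MOI 1. After 3 days at 37 °C, luciferase luminescence was read with One-Glo. Data normalized to remdesivir (0%) and DMSO (100% replication); EC50 from non-linear regression.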

Data set [2] in a line: GI S9 stability (Ex. Z), rat intestinal S9. To be noted: rat intestinal S9, 1.0 mg/mL protein, 2 μM substrate, pH 7.4, read-out: GIS9 Rat T½ (per Ex. Z). The data set is classed as in vitro ADME. The procedure, abridged:
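Pooled intestinal S9 at 1.0 mg/mL protein in PBS, pH 7.4, with substrate at 2 μM final, sampled at 0–120 min and quenched in methanol/acetonitrile containing labetalol. Remaining parent quantified by LC-MS peak area ratio. Half-life from first-order exponential decline fit.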

Data set [3] in a line: GI S9 stability (Ex. Z), human intestinal S9. To be noted: human intestinal S9, 1.0 mg/mL protein, 2 μM substrate, pH 7.4, read-out: GIS9 Human T½ (per Ex. Z). It is filed as in vitro ADME. As for the experimental part:
Example Z: GI S9 stability data:
Stock solutions of test compounds in dimethyl sulfoxide (DMSO) having a final concentration of 10 mM were prepared and used in all experiments. Sekisui XenoTech (Kansas City, KS) provided pooled intestinal S9 fractions. All other chemicals were purchased from Sigma-Aldrich (St. Louis, MO) or VWR (West Chester, PA). Internal Standard/Quench (IS/Q) used to stop reactions was 100 nM labetalol in (by volume) methanol (10%) and acetonitrile (90%).
Stability in Intestinal S9 Fractions: Duplicate aliquots of test compound or positive control substrate were added to S9 stock diluted with phosphate buffered saline (137 mM NaCl, 2.7 mM KCl, 10 mM phosphate buffer), pH 7.4, to obtain a protein concentration of 1.0 mg/mL. The metabolic reactions were initiated by the addition of the substrates to the S9 reaction mixture to a final concentration of 2 μM. At 0, 10, 20, 30, 60 and 120 min, 25 μL aliquots of the reaction mixture were transferred to plates containing 225 μl of IS/Q solution. After quenching, the plates were centrifuged at 3000×g for 30 minutes. 150 μL aliquots of each supernatant were dried down then reconstituted with 300 μL water. Aliquots (10 μL) of the prepared samples were analyzed on a Thermo Q-Exactive mass spectrometer as described below.
Liquid Chromatography—Mass Spectrometry: Quantification of test compounds and control substrate was performed by analyte/internal standard peak area ratio (PAR) values measured on a Thermo Q-Exactive mass spectrometer coupled to a Dionex UltiMate 3000 HPLC with a Leap Technologies HTC PAL autosampler. The column used for analysis was a Waters Acquity BEH C18 (1.7 μm particle size, 2.1×50 mm). Mobile phase A consisted of 0.1% (v/v) formic acid in water. Mobile phase B consisted of 0.1% (v/v) formic acid in acetonitrile. Elution of analytes was achieved by a series of linear gradients varying the proportions of A and B. The mass spectrometer was calibrated on a weekly basis and mass tolerance of 5 ppm was used.
Metabolic stabilities in S9 fractions were determined by measuring the rates of disappearance of test compound and positive control substrate.
Data (% of substrate remaining) were plotted on a semi-log scale and fitted using an exponential decline model:
Where Ct—% of substrate remaining at time=t; C0—% of substrate remaining at time=0; t—time; T½—half-life The Half-life (T½) is determined by the following equation: […]
Assuming a first-order reaction, the slope (k) is extrapolated from the aforementioned plotted data.

In general, EC50 refers to the concentration needed to bring the measured effect to its halfway point.

`N#C[C@]1(COC(=O)C2CCCC2)O[C@@H](c2ccc3c(N)ncnn23)[C@H](O)[C@@H]1O` [Compound 18, ((2R,3S,4R,5S)-5-(4-aminopyrrolo[2,1-f][1,2,4]triazin-7-yl)-2-cyano-3,4-dihydroxytetrahydrofuran-2-yl)methyl cyclopentanecarboxylate]: the EC50 in data set [1] was found to be 8.71 µM. In addition, the half-life at 2 μM in data set [2] (pooled intestinal S9 fractions) is 3 min; in data set [3] (pooled intestinal S9 fractions), 8 min.

As for `N#C[C@]1(COC(=O)C2CCCCC2)O[C@@H](c2ccc3c(N)ncnn23)[C@H](O)[C@@H]1O` [Compound 19, ((2R,3S,4R,5S)-5-(4-aminopyrrolo[2,1-f][1,2,4]triazin-7-yl)-2-cyano-3,4-dihydroxytetrahydrofuran-2-yl)methyl cyclohexanecarboxylate], in data set [1], the EC50 was 10.9 µM. Also, the half-life at 2 μM is 4 min in data set [2] (pooled intestinal S9 fractions) and 13 min in data set [3] (pooled intestinal S9 fractions).

On to `CC(C)C(=O)OC[C@@]1(C#N)O[C@@H](c2ccc3c(N)ncnn23)[C@H](OC(=O)C(C)C)[C@@H]1OC(=O)C(C)C` [Compound 20, (2R,3S,4S,5S)-5-(4-aminopyrrolo[2,1-f][1,2,4]triazin-7-yl)-2-cyano-2-((isobutyryloxy)methyl)tetrahydrofuran-3,4-diyl bis(2-methylpropanoate)], for which the EC50 in data set [1] is 10.4 µM. Further, the figures for the half-life at 2 μM in data set [2] (pooled intestinal S9 fractions) and in data set [3] (pooled intestinal S9 fractions) were 2 min and 3 min, respectively.

`N#C[C@]1(COC(=O)[C@H]2CCC(=O)O2)O[C@@H](c2ccc3c(N)ncnn23)[C@H](O)[C@@H]1O` [Compound 25, ((2R,3S,4R,5S)-5-(4-aminopyrrolo[2,1-f][1,2,4]triazin-7-yl)-2-cyano-3,4-dihydroxytetrahydrofuran-2-yl)methyl (R)-5-oxotetrahydrofuran-2-carboxylate]: in data set [1], the EC50 came out at 11.7 µM. For the same molecule, the values for the half-life at 2 μM in data set [2] (pooled intestinal S9 fractions) and in data set [3] (pooled intestinal S9 fractions) were 5 min and 3 min, respectively.

For the molecule `CC(=O)OC[C@@]1(C#N)O[C@@H](c2ccc3c(N)ncnn23)[C@H](OC(C)=O)[C@@H]1OC(C)=O` [Compound 28, (2R,3S,4S,5S)-2-(acetoxymethyl)-5-(4-aminopyrrolo[2,1-f][1,2,4]triazin-7-yl)-2-cyanotetrahydrofuran-3,4-diyl diacetate], the EC50 in data set [1] was found to be 24.6 µM. The half-life at 2 μM in data set [2] (pooled intestinal S9 fractions) and in data set [3] (pooled intestinal S9 fractions) was 5 min throughout.

Take `CC(C)C(=O)Nc1ncnn2c([C@@H]3O[C@](C#N)(CO)[C@@H](O)[C@H]3O)ccc12` [Compound 30, N-(7-((2S,3R,4S,5R)-5-cyano-3,4-dihydroxy-5-(hydroxymethyl)tetrahydrofuran-2-yl)pyrrolo[2,1-f][1,2,4]triazin-4-yl)isobutyramide]: the EC50 in data set [1] came to 38.5 µM. In addition, the half-life at 2 μM in data set [2] (pooled intestinal S9 fractions) and in data set [3] (pooled intestinal S9 fractions) was 789 min throughout.

As for `N#C[C@]1(COC(=O)C2CC3(CCC3)C2)O[C@@H](c2ccc3c(N)ncnn23)[C@H](O)[C@@H]1O` [Compound 32, ((2R,3S,4R,5S)-5-(4-aminopyrrolo[2,1-f][1,2,4]triazin-7-yl)-2-cyano-3,4-dihydroxytetrahydrofuran-2-yl)methyl spiro[3.3]heptane-2-carboxylate], the EC50 in data set [1] was determined as 6.7 µM. In addition, the results for the half-life at 2 μM in data set [2] (pooled intestinal S9 fractions) and in data set [3] (pooled intestinal S9 fractions) were 2 min and 12 min, respectively.

`CC1(CC(=O)OC[C@@]2(C#N)O[C@@H](c3ccc4c(N)ncnn34)[C@H](O)[C@@H]2O)CCC1` [Compound 33, ((2R,3S,4R,5S)-5-(4-aminopyrrolo[2,1-f][1,2,4]triazin-7-yl)-2-cyano-3,4-dihydroxytetrahydrofuran-2-yl)methyl 2-(1-methylcyclobutyl)acetate]: the EC50 in data set [1] turned out to be 50 µM. The half-life at 2 μM was determined as 31 min in data set [2] (pooled intestinal S9 fractions) and 154 min in data set [3] (pooled intestinal S9 fractions).

Consider `CCC(C)(C)C(=O)OC[C@@]1(C#N)O[C@@H](c2ccc3c(N)ncnn23)[C@H](O)[C@@H]1O` [Compound 35, ((2R,3S,4R,5S)-5-(4-aminopyrrolo[2,1-f][1,2,4]triazin-7-yl)-2-cyano-3,4-dihydroxytetrahydrofuran-2-yl)methyl 2,2-dimethylbutanoate], for which the EC50 in data set [1] was 9.6 µM. In addition, the half-life at 2 μM in data set [2] (pooled intestinal S9 fractions) worked out at 124 min; in data set [3] (pooled intestinal S9 fractions), 273 min.

Take `CC(C)(C)CCC(=O)OC[C@@]1(C#N)O[C@@H](c2ccc3c(N)ncnn23)[C@H](O)[C@@H]1O` [Compound 36, ((2R,3S,4R,5S)-5-(4-aminopyrrolo[2,1-f][1,2,4]triazin-7-yl)-2-cyano-3,4-dihydroxytetrahydrofuran-2-yl)methyl 4,4-dimethylpentanoate]: in data set [1], the EC50 came to 10.8 µM. The results for the half-life at 2 μM in data set [2] (pooled intestinal S9 fractions) and in data set [3] (pooled intestinal S9 fractions) were 3 min and 11 min, respectively.

With `N#C[C@]1(COC(=O)Cc2ccccc2)O[C@@H](c2ccc3c(N)ncnn23)[C@H](O)[C@@H]1O` [Compound 38, ((2R,3S,4R,5S)-5-(4-aminopyrrolo[2,1-f][1,2,4]triazin-7-yl)-2-cyano-3,4-dihydroxytetrahydrofuran-2-yl)methyl 2-phenylacetate], the EC50 in data set [1] came out at 10.6 µM. The half-life at 2 μM in data set [2] was determined as 12 min; in data set [3], 28 min.

The values above are taken from patent US20240199676A1, “ANTIVIRAL COMPOUNDS AND METHODS OF MAKING AND USING THE SAME” (Gilead Sciences, Inc., priority 2022, published 2024).
